Test results published in patent publication US9689021B2, “Method for measuring beta-lactam antibiotics” (priority 2011, dated 2017).
Read-outs that look alike come from different tables or passages of the source.

Key:
[1] = target: class C beta-lactamase of Enterobacter cloacae P99 (Enterobacter cloacae, UniProt P05364); settings: cited from earlier work
[2] = target: class C beta-lactamase of Serratia marcescens (Serratia marcescens, UniProt P18539); settings: cited from earlier work
[3] = target: class C beta-lactamase of Escherichia coli K12 (Escherichia coli, UniProt P00811); settings: cited from earlier work
class C beta-lactamase of Escherichia coli K12, sequence (P00811 20-377): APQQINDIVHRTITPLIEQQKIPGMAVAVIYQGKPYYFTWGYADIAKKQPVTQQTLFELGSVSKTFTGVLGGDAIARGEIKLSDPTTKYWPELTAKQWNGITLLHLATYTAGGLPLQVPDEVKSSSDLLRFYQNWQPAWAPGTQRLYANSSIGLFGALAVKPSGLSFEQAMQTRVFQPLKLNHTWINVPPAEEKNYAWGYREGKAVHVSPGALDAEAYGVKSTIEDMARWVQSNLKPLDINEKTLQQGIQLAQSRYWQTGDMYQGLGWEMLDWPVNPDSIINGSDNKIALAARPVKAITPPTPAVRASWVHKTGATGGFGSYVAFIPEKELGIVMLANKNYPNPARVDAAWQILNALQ

[4] = target: class C beta-lactamase of Pseudomonas aeruginosa (Pseudomonas aeruginosa, UniProt P24735); settings: cited from earlier work
class C beta-lactamase of Pseudomonas aeruginosa, sequence (P24735 27-397): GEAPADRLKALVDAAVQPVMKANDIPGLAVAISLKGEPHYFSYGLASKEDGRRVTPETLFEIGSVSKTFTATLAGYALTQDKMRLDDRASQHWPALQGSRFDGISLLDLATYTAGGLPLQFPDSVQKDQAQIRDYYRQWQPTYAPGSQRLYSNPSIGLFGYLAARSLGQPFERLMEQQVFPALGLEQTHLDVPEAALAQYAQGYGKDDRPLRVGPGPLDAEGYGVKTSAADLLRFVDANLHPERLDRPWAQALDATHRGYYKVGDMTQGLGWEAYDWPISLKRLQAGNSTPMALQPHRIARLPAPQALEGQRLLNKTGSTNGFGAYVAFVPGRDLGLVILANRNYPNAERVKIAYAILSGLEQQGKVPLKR

[5] = system: class C beta-lactamase of Enterobacter cloacae 908R; settings: cited from earlier work
[6] = target: class C beta-lactamase of Citrobacter freundii (Citrobacter freundii, UniProt P05193); settings: cited from earlier work
class C beta-lactamase of Citrobacter freundii, sequence (P05193 21-381): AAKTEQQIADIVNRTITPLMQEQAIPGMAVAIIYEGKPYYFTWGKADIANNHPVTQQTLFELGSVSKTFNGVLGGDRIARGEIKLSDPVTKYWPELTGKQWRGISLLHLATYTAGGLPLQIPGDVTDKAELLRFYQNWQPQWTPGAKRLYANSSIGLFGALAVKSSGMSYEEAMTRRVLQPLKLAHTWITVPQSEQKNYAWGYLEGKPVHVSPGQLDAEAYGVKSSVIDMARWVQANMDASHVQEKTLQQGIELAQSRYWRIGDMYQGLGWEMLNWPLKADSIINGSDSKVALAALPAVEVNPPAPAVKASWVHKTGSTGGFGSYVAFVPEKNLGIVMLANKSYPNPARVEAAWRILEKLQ

[7] = target: T1, P99A266C beta-lactamase (Enterobacter cloacae, UniProt P05364, A266C); assay: Kinetic assay, reporter substrate competition (colorimetric assay); format: biochemical, Enterobacter cloacae P99
T1 construct: made in house; host or cells: E. coli BL21(DE3), pET28 vector
T1 sequence (P05364 other isoform, or with tags, fused parts or gaps A266C): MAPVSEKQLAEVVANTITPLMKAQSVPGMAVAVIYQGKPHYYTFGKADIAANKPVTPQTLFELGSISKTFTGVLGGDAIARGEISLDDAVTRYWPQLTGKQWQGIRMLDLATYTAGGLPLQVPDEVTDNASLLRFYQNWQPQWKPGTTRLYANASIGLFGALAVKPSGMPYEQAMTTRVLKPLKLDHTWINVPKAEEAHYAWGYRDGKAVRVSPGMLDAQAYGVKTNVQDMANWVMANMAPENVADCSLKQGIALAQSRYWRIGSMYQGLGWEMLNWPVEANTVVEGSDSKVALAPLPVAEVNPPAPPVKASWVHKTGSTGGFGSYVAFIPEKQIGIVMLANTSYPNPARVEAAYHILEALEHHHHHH
Excerpt: (§1) The colorimetric assay used the competition between a reporter substrate and a beta-lactam antibiotic towards the catalytic site of the class C beta-lactamase. In the absence of beta-lactam antibiotic, the class C beta-lactamase P99 hydrolyzed rapidly the reporter substrate and this reaction produced a deep red (nitrocefin) or yellow (CENTA) coloration.
(§2) In the presence of beta-lactam antibiotic, P99 catalytic activity was less available and thus less able to hydrolyze the reporter substrate. Accordingly, the higher the concentration of beta-lactam antibiotic, the lower the coloration of the medium. In this enzymatic competitive kinetic assay, the UV-Visible absorbance was inversely proportional to the concentration of beta-lactam antibiotic.
(§3) Report substrate: A stock solution of reporter substrate consisting of 10 mM of CENTA in HEPES (4-(2-hydroxyethyl)-1-piperazineethanesulfonic acid) pH 7.8 (20 mM)/NaCl (200 mM) buffer was diluted 10 times in HEPES pH 7.8 (20 mM)/NaCl (200 mM) buffer.
(§4) Solution of enzyme: in a spectrophotometer cell, containing HEPES/NaCl buffer (400 μL) and CENTA (100 μL, 100 μM); 20 μL of P99 enzyme solution was added. The concentration of P99 enzyme was variable in function of the preparation and ranged between 0.01 mg/ml to 100 mg/ml. The absorbance variation was measured at 405 nm during 1 min. The enzyme solution used in the experiment was then diluted until the absorbance variation was comprised between 35 and 45 mUAbs/min cm^−1. This diluted solution was further used in this example.
(§5) 8 standard solutions per antibiotic tested were deposited on a 96-well microplate (40 μL).
(§6) The absorbance was measured using a microplate reader, with each column being measured separately. The program comprised following the kinetic during 4 min, with 1 measure at 405 nm every 10 seconds (24 measures). In each well and simultaneously, a mixture of 45 μl HEPES/NaCl buffer and 5 μl P99 solution was added. The same mixture was used for the 8 wells of each column, and thus prepared in advance for distribution with a multi-channel pipette. After 1 min incubation at 20° C., the reading was started, and KC Junior™ software (BioTek Instruments, Winooski, Vt.) was used to calculate the slope of each reaction kinetic. The experiments were made in triplicate and reproduced over 5 different days.
(§7) Kinetic assays with the P99 beta-lactamase and with P99A266C beta-lactamase were performed in order to test and compare the enzyme activities.

[8] = target: T2, P99 beta-lactamase (Enterobacter cloacae, UniProt P05364); assay: as above; format: biochemical; design: made in house; host or cells: E. coli BL21(DE3), pET28-P99
Excerpt: as §1, §2, §3, §4, §5, §6, §7
Target sequence in this assay (P05364 22-380, added parts left off): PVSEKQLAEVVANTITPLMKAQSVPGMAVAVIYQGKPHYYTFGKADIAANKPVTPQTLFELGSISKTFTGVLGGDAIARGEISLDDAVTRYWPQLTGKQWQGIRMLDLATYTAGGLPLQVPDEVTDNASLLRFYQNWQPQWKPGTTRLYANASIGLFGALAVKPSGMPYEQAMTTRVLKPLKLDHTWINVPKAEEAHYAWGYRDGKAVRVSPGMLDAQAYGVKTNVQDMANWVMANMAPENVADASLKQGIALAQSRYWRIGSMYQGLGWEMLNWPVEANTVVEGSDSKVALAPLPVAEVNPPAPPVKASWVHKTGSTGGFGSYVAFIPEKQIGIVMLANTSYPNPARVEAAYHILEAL

[9] = target: T2, P99 beta-lactamase; format: biochemical
Target sequence in this assay (P05364 21-381): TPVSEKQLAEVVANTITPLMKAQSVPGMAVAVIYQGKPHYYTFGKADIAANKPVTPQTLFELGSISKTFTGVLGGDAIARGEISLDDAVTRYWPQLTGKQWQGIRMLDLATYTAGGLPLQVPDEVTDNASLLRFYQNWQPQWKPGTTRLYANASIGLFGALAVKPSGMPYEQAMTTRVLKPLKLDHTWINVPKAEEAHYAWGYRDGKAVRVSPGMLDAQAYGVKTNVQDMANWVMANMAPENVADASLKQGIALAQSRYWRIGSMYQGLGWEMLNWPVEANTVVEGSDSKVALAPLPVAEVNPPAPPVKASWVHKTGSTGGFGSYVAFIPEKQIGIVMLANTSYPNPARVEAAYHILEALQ

class C beta-lactamase of Serratia marcescens, sequence (P18539 22-376): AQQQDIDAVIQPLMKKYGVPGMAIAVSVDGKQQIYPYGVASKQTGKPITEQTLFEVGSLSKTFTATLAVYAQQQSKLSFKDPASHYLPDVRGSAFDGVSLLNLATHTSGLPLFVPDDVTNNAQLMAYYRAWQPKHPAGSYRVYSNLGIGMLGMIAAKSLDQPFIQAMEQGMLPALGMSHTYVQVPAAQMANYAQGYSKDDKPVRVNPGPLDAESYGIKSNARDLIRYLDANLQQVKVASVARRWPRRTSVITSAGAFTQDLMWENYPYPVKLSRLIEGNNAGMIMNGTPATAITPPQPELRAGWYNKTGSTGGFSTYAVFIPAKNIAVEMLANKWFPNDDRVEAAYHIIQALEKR
class C beta-lactamase of Enterobacter cloacae P99, sequence (P05364 21-381): as the sequence (P05364 21-381) above

O=C(Cc1cccs1)N[C@@H]1C(=O)N2C(C(=O)O)=C(/C=C/c3ccc([N+](=O)[O-])cc3[N+](=O)[O-])CS[C@H]12 [Nitrocefin]
kcat [1]: 780 s⁻¹
Km ([1]; read-out: Km): 25 µM
kcat ([2]; Serratia marcescens): 1240 s⁻¹
Km [2]: 40 µM
kcat [3]: 490 s⁻¹
kcat ([4]; Pseudomonas aeruginosa): 742 s⁻¹
Km [4]: 27 µM
Km [5]: 23 µM
kcat [5]: 780 s⁻¹
kcat [6]: 330 s⁻¹

CCN1CCN(C(=O)N[C@@H](C(=O)N[C@@H]2C(=O)N3[C@@H]2SC(C)(C)[C@@H]3C(=O)O)c2ccccc2)C(=O)C1=O [Piperacillin]
Diff. (%) P99 vs P99A266C ([7]; antibiotic 5 ug/ml): 16%
P99A266C rate ([7]; antibiotic 5 ug/ml): 8.3 mUAbs/min
Diff. (%) P99 vs P99A266C ([7]; antibiotic 10 ug/ml): 4%
P99A266C rate ([7]; antibiotic 10 ug/ml): 6.1 mUAbs/min
Diff. (%) P99 vs P99A266C ([7]; antibiotic 20 ug/ml): 6%
P99A266C rate ([7]; antibiotic 20 ug/ml): 3.8 mUAbs/min
Diff. (%) P99 vs P99A266C ([7]; antibiotic 40 ug/ml): −4%
P99A266C rate ([7]; antibiotic 40 ug/ml): 2.5 mUAbs/min
P99 rate ([8]; antibiotic 5 ug/ml): 9.7 mUAbs/min
P99 rate ([8]; antibiotic 10 ug/ml): 6.4 mUAbs/min
P99 rate ([8]; antibiotic 20 ug/ml): 4.0 mUAbs/min
P99 rate ([8]; antibiotic 40 ug/ml): 2.4 mUAbs/min

ampicillin-fluorescein [Ampi-flu]
v0 (standard curve) ([9]; 0.1 mg/L): 0.2638 ΔAbs482/min
v0/v0max (standard curve) ([9]; 0.1 mg/L): 98%
v0 (standard curve) ([9]; 0.5 mg/L): 0.2336 ΔAbs482/min
v0/v0max (standard curve) ([9]; 0.5 mg/L): 87%
v0 (standard curve) ([9]; 1.5 mg/L): 0.169 ΔAbs482/min
v0/v0max (standard curve) ([9]; 1.5 mg/L): 63%
v0 (standard curve) ([9]; 3 mg/L): 0.1064 ΔAbs482/min
v0/v0max (standard curve) ([9]; 3 mg/L): 39%
v0 (standard curve) ([9]; 5 mg/L): 0.063 ΔAbs482/min
v0/v0max (standard curve) ([9]; 5 mg/L): 23%
v0 (standard curve) ([9]; 7.5 mg/L): 0.0389 ΔAbs482/min
v0/v0max (standard curve) ([9]; 7.5 mg/L): 14%
v0 (standard curve) ([9]; 10 mg/L): 0.025 ΔAbs482/min
v0/v0max (standard curve) ([9]; 10 mg/L): 9%
v0/v0max due to ampi-flu ([9]; sample 3, calculated from equation 3): 59%
